The values that follow come from patent US8337871B2, “Insecticide formulation” (Endura S.p.A., priority 2003, dated 2012).

Series [1] relates to cotton aphid strain (Aphis Gossypii). Put plainly: Mortality assay on cotton aphid (example 19). As to conditions: for No. insects alive/no. total insects after 24 hours: in Agral 90, 24 hours. The procedure: In a mortality assay conducted as reported in the literature [Gunning R. V. et al., J. Econ. Entomol.
A mortality assay was performed as reported in example 4 on a cotton aphid strain (Aphis Gossypii) using the formulation described in example 10, dissolved in 10 ml Agral 90. Data obtained with fenvalerate dissolved in 10 ml Agral 90, and with placebo (10 ml Agral 90) are shown as a reference. In all tests, concentration values are referred to the amount of active principle.

Series [2] deals with Bemisia Tabaci strain (B-Biotype) (Silver leaf whitefly). Nature of the series: Mortality assay on Bemisia Tabaci (example 18). The format is in vivo. As to conditions: in Agral 90, 48 hours. The procedure:
(B-Biotype) (Silver leaf whitefly) using the formulation described in example 16, dissolved in 10 ml Agral 90.

The subject of series [3] is Heicoverpa Armigera strain (Cotton Bollworm). Put plainly: Mortality assay on Cotton Bollworm (example 20). The format is in vivo. As to conditions: in Agral 90, 24 hours. The procedure: Data obtained with αcypermethrin dissolved in 10 ml Agral 90, and with a mixture of αcypermethrin/PBO dissolved in 10 ml of Agral 90 (the PBO content being 0.2% with respect to αcypermethrin) are shown as a reference.

[4] abbreviates: concentration 0.01 % w/v active principle.
The mark [5] stands for this setting: concentration 0.1 % w/v active principle.
[6] abbreviates: concentration 0.0005 % w/v active principle.
Setting [7] is: concentration 0.001 % w/v active principle.

Regarding `CC(C)C(C(=O)OC(C#N)c1cccc(Oc2ccccc2)c1)c1ccc(Cl)cc1` (centres unmarked) [fenvalerate], in series [1] (Aphis gossypii, 24 h), the mortality – broadly, the share of the test organisms that died – at 0.002 % strength worked out at 0%; the mortality at 0.02 % strength came to 20%; the mortality at 0.2 % strength is 40%. The “No. insects alive/no. total insects after 24 hours” value in series [1] (concentration 0.002 % w/v active principle) is given as 10/10. Moreover, the “No. insects alive/no. total insects after 24 hours” value in series [1] (concentration 0.02 % w/v active principle) is on record as 8/10. For the same compound, in series [1] (concentration 0.2 % w/v active principle), the “No. insects alive/no. total insects after 24 hours” value was 6/10.

Turning to `CC1(C)C(C=C(Cl)Cl)C1C(=O)OC(C#N)c1cccc(Oc2ccccc2)c1` (centres unmarked) [αcypermethrin], the Mortality % in series [2] (setting [4]) is reported as 19%; in series [2] (setting [5]) it was 67%; in series [3] (setting [6]) it was 40%; in series [3] (setting [7]), 60%. In addition, the “No. insects alive/no. total insects after 48 hours” value in series [2] (setting [4]) is recorded as 22/27; in series [2] (setting [5]), 4/12. Further, the “No. insects alive/no. total insects after 24 hours” value in series [3] (setting [6]) is given as 6/10; in series [3] (setting [7]), 4/10.
